Measurements from patent US20050176760A1, “N-'4-(2-imino-pyrrolidin-1-yl)phenyl!-acetamide and corresponding piperidine derivatives as factor xa inhibitors for the treatment of thrombo-embolic diseases” (Merck Patent GmbH, priority 2002, published 2005).

How the values were obtained:
[1] = target: FXa (Homo sapiens, UniProt P00742); experiment: Factor Xa inhibition (FXa-IC50); assay type: biochemical; details: Table 1, pharmacological data, 'Affinity to receptors'
Excerpt: The inhibition of factor Xa by the compounds according to the invention and the measurement of the anticoagulant and antithrombotic activity can be determined by conventional in-vitro or in-vivo methods. A suitable method is described, for example, by J. Hauptmann et al. in Thrombosis and Haemostasis 1990, 63, 220-223.
The inhibition of factor Xa can be measured, for example by the method of T. Hara et al. in Thromb. Haemostas. 1994, 71, 314-319.

[2] = target: TF/FVIIa (Homo sapiens, UniProt P08709); experiment: TF/factor VIIa inhibition (TF/FVIIa-IC50); assay type: biochemical; details: Table 1, pharmacological data, 'Affinity to receptors'
TF/FVIIa, sequence (P08709 213-466 limits assumed): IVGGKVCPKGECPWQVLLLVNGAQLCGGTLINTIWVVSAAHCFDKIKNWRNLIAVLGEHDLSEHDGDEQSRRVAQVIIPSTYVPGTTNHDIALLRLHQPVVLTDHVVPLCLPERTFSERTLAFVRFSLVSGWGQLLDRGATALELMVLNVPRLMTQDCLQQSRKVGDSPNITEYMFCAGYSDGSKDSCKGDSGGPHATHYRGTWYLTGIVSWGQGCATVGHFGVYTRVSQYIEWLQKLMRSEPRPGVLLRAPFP
TF/FVIIa, sequence (P08709 61-212 limits assumed): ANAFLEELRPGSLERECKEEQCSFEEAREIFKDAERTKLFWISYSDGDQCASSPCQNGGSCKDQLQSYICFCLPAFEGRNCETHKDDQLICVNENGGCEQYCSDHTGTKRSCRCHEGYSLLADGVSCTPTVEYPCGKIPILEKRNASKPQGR
TF/FVIIa, sequence (P13726 33-295 partner): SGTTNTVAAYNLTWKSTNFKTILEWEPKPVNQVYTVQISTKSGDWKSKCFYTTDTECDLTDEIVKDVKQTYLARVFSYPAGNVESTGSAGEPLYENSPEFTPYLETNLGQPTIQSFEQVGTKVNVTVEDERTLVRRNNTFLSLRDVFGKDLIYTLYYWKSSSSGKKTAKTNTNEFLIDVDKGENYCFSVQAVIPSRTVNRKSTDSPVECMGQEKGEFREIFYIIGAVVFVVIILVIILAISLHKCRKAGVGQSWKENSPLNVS
Excerpt: The inhibition of factor Vila by the compounds according to the invention and the measurement of the anticoagulant and antithrombotic activity can be determined by conventional in-vitro or in-vivo methods. A conventional method for the measurement of the inhibition of factor VIIa is described, for example, by H. F. Ronning et al. in Thrombosis Research 1996, 84, 73-81.

FXa, sequence (P00742 235-488 limits assumed): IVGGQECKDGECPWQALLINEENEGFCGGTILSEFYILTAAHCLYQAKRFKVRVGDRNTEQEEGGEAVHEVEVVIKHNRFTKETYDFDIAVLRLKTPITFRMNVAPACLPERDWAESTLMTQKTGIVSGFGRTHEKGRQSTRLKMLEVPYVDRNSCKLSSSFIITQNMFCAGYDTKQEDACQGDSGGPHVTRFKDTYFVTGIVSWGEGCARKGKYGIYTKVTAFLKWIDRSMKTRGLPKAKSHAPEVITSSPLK
FXa, sequence (P00742 41-179 limits assumed): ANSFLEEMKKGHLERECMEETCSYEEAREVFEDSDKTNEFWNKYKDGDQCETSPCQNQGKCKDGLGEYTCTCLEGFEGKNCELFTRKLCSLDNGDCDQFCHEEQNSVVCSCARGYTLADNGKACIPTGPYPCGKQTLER

Cc1cc(NC(=O)C(Nc2cccc(CN)c2)c2ccccc2Cl)ccc1N1CCCC1=NCCN(C)C (stereo not shown) [DA, 2-(3-aminomethylphenylamino)-N-[3-methyl-4-(2-(2-dimethylaminoethylimino)pyrrolidin-1-yl)phenyl]-2-(2-chloro)phenyl-acetamide]
IC50 [1]: 66 nM | IC50 [2]: 130 nM

N=C1CCCN1c1ccc(NC(=O)C(Nc2cccc(CN)c2)c2ccccc2)cc1Cl (racemic) [AB, (R, S)-2-(3-aminomethylphenylamino)-N-[3-chloro-4-(2-iminopyrrolidin-1-yl)phenyl]-2-phenylacetamide]
IC50 [1]: 58 nM | IC50 [2]: 99 nM

CC(C)C[C@H](Oc1ccc2ccnc(N)c2c1)C(=O)Nc1ccc(N2CCCCC2=N)cc1 [BB, (S)-2-(1-aminoisoquinolin-7-yloxy)-N-[4-(2-iminopiperidin-1-yl)phenyl]-4-methylvaleramide]
IC50 [1]: 2700 nM | IC50 [2]: 2000 nM

CON=C1CCCCN1c1ccc(NC(=O)[C@H](CC(C)C)Oc2ccc3ccnc(N)c3c2)cc1 (single isomer, unassigned) [BA]
IC50 [1]: 680 nM | IC50 [2]: 490 nM

NCc1cccc(NC(C(=O)Nc2ccc(N3CCCC3=NO)c(Cl)c2)c2ccccc2)c1 (racemic) [AA, (R, S)-2-(3-aminomethylphenylamino)-N-[3-chloro-4-(2-hydroxyiminopyrrolidin-1-yl)phenyl]-2-phenylacetamide]
IC50 [1]: 220 nM | IC50 [2]: 290 nM
